Test results as given in patent US20090286718A1, “Stable Aqueous Cyclosporin Compositions” (SIRION THERAPEUTICS, INC., priority 2008, published 2009).
Read-outs that look alike come from different tables or passages of the source.

Conditions: initial 0.220 %
Experimental: The samples were tested for stability after having been stored at 25° C. for three months.

Structure (SMILES): C/C=C/C=C/C(=O)O [Sorbic Acid, sorbic acid]
- Sorbic Acid Concentration (%) After 3 months storage at 25 C. (pH = 5.5): 0.13%
- Sorbic Acid Concentration (%) After 3 months storage at 25 C. (pH = 6.0): 0.21%
- Sorbic Acid Concentration (%) After 3 months storage at 25 C. (pH = 6.5): 0.21%
